Measurements published in patent US11466005B2, “Tricyclic compounds” (JACOBIO PHARMACEUTICALS CO., LTD., priority 2018, dated 2022).

Experiments:
MV-4-11 cells = assay: MV-4-11 cell proliferation assay (MTS); assay type: cell-based; settings: Homo sapiens, MV4-11, 72 h, 3 days culture
Method: 2. Cell Proliferation Assay
MV-4-11 cell proliferation analysis was conducted by the MIS (3-(4,5-dimethylthiazol-2-yl)-5-(3-carboxymethoxyphenyl)-2-(4-sulfophenyl)-2H-tetrazolium, inner salt) assay. Briefly, MV-4-11 cells will be cultured in IMDM (Iscove's Modified Dubecco's Medium) medium supplemented with 10% (v/v) FBS (fetal bovine serum), under the temperature of 37° C., […] and 95% humidity. The cells will be harvested respectively during the logarithmic growth period and counted with hemocytometer. The cell viability is over […] by trypan blue exclusion. Adjust MV-4-11 cells concentrations to 1.2×10^5 cells/mL with complete medium. Add 100 μL cell suspensions to 96-well plates (triplicates for each cell concentration), the final cell densities are 1.2×10^4 cells/well. The next day, dissolve the test compound with DMSO as stock solution. Dispense 5 μL of the stock solution in 1 mL culture media and add 25 μL drug media into 96-well plates. After serially diluting with culture media, the final concentration of the compound will be 0, 0.03, 0.1, 0.3, 1, 3, 10, 30, 100 nM. The plates will be cultured for 3 days, then measured by means of MTS assay. Add PMS (phenazinium methosulfate) solution to MITS solution (1:20) immediately before addition to the culture plate containing cells. Pipet 20 μL of the combined MTS/PMS Solution into each well of the 96 well assay plate containing 100 μL of cells in culture medium. Incubate the plate for 1-4 hours at 37° C. in a humidified, 5% CO2 atmosphere. Record the absorbance at 490 nm using a microplate spectrophotometer (Envision®, PeikinElmer). Fit the data using GraphPad 5.0 and obtain IC50 values.

BRD4(BD1) = BRD4(BD1) (Homo sapiens (Human), UniProt O60885); assay: BRD4(BD1) biochemical binding assay (HTRF); settings: biotinylated H4 derived acetylated peptide
Method: 1. BRD4(BD1) Binding Assays
The BRD4(BD1) biochemical binding assay was performed by Sundia MediTech Co. Ltd. in 384-well white plate (OptiPlate-384, PerkinElmer) using HTRF technology.
Briefly, 20 nL of compounds were transferred to the 384-well plate by Echo® 550 liquid handler (Labcyte, USA), then 5 μL of BRD4(BD1) (Reaction Biology Company, RD-11-157) solution or the assay buffer was added to each well. After incubating at RT for 15 min, 5 μL of the biotinylated H4 derived acetylated peptide (synthesized by GL Biochem (Shanghai) Ltd) and 10 μL of the detection solution (Cisbio Assay) were added to each well. After incubating for 1 h at RT, the HTRF signal was measure at 615 nm and 665 nm using the EnVision Multilabel Plate Reader (PerkinElmer, USA). Results were analyzed with a two-wavelength signal ratio: intensity (665 nm)/intensity (615 nm). The inhibition percentage in the presence of the compound was calculated according to the equation, Percent inhibition=(Max−Signal)/(Max−Min)*100%. Fit the data in GraphPad Prism V5.0 software (San Diego, Calif.) to obtain IC50 values with nonlinear regression analysis using equation, Y=Bottom+(Top−Bottom)/(1+10^((Log IC50−X)×HillSlope), where Y stands for inhibition percentage and X stands for compound concentration.

Structure (SMILES)	IC50 (MV-4-11 cells)	IC50 (BRD4(BD1))
Cc1cccnc1C(CCC(F)(F)F)n1c2cc(-c3c(C)nnn3C)cnc2c2c1c(C(C)(C)O)nn2C (stereo not shown) [Compound 11, 2-(6-(1,4-dimethyl-1H-1,2,3-triazol-5-yl)-1-methyl-4-(4,4,4-trifluoro-1-(3-methylpyridin-2-yl)butyl)-1,4-dihydropyrazolo[3′,4′:4,5]pyrrolo[3,2-b]pyridin-3-yl)propan-2-ol]	7.66 nM	1.3 nM
Cc1nc(C(C2CCOCC2)n2c3cc(-c4c(C)nnn4C)cnc3c3c2c(C(C)(C)O)nn3C)co1 (stereo not shown) [Compound 12, 2-(6-(1,4-Dimethyl-1H-1,2,3-triazol-5-yl)-1-methyl-4-((2-methyloxazol-4-yl)(tetrahydro-2H-pyran-4-yl)methyl)-1,4-dihydropyrazolo[3′,4′:4,5]pyrrolo[3,2-b]pyridin-3-yl)propan-2-ol]	10.5 nM	1.6 nM
Cc1nnn(C)c1-c1cnc2c3[nH]nc(C(C)(C)O)c3n([C@H](c3ncccc3F)C3CCOCC3)c2c1 [Compound 13, (S)-2-(6-(1,4-Dimethyl-1H-1,2,3-triazol-5-yl)-4-((3-fluoropyridin-2-yl)(tetrahydro-2H-pyran-4-yl)methyl)-1,4-dihydropyrazolo[3′,4′:4,5]pyrrolo[3,2-b]pyridin-3-yl)propan-2-ol]	1.15 nM	0.4 nM
Cc1nnn(C)c1-c1cnc2c3c(c(C(=O)N(C)C)nn3C)n(C(c3ccccc3)C3CCOCC3)c2c1 (stereo not shown) [Compound 15, 6-(1,4-Dimethyl-1H-1,2,3-triazol-5-yl)-N,N,1-trimethyl-4-(phenyl(tetrahydro-2H-pyran-4-yl)methyl)-1,4-dihydropyrazolo[3′,4′:4,5]pyrrolo[3,2-b]pyridine-3-carboxamide]	25.1 nM	0.61 nM
Cc1nnn(C)c1-c1cnc2c3c(c(C(N)=O)nn3C)n(C(c3ccccc3)C3CCOCC3)c2c1 (stereo not shown) [Compound 16, 6-(1,4-Dimethyl-1H-1,2,3-triazol-5-yl)-1-methyl-4-(phenyl(tetrahydro-2H-pyran-4-yl)methyl)-1,4-dihydropyrazolo[3′,4′:4,5]pyrrolo[3,2-b]pyridine-3-carboxamide]	3.6 nM	0.3 nM
CNC(=O)c1nn(C)c2c3ncc(-c4c(C)nnn4C)cc3n(C(c3ccccc3)C3CCOCC3)c12 (stereo not shown) [Compound 17, 6-(1,4-dimethyl-1H-1,2,3-triazol-5-yl)-N,1-dimethyl-4-(phenyl(tetrahydro-2H-pyran-4-yl)methyl)-1,4-dihydropyrazolo[3′,4′:4,5]pyrrolo[3,2-b]pyridine-3-carboxamide]	12.7 nM	0.55 nM

Next, values leading:

IC50 (MV-4-11 cells)	IC50 (BRD4(BD1))	Structure (SMILES)
3.93 nM	1.1 nM	Cc1nnn(C)c1-c1cnc2c3c(c(C(C)(C)N)nn3C)n(C(c3ccccc3)C3CCOCC3)c2c1 (stereo not shown) [Compound 18, 2-(6-(1,4-Dimethyl-1H-1,2,3-triazol-5-yl)-1-methyl-4-(phenyl(tetrahydro-2H-pyran-4-yl)methyl)-1,4-dihydropyrazolo[3′,4′:4,5]pyrrolo[3,2-b]pyridin-3-yl)propan-2-amine]
7.17 nM	0.79 nM	CCC(O)(CC)c1nn(C)c2c3ncc(-c4c(C)nnn4C)cc3n(C(c3ccccc3)C3CCOCC3)c12 (stereo not shown) [Compound 19, 3-(6-(1,4-Dimethyl-1H-1,2,3-triazol-5-yl)-1-methyl-4-(phenyl(tetrahydro-2H-pyran-4-yl)methyl)-1,4-dihydropyrazolo[3′,4′:4,5]pyrrolo[3,2-b]pyridin-3-yl)pentan-3-ol]
0.91 nM	0.68 nM	COc1cccnc1C(C1CCOCC1)n1c2cc(-c3c(C)nnn3C)cnc2c2c1c(C(C)(C)O)nn2C (stereo not shown) [Compound 26, 2-(6-(1,4-Dimethyl-1H-1,2,3-triazol-5-yl)-4-((3-methoxypyridin-2-yl)(tetrahydro-2H-pyran-4-yl)methyl)-1-methyl-1,4-dihydropyrazolo[3′,4′:4,5]pyrrolo[3,2-b]pyridin-3-yl)propan-2-ol]
24.7 nM	1.9 nM	CC(=O)Nc1nn(C)c2c3ncc(-c4c(C)nnn4C)cc3n([C@H](c3ccccc3)C3CCOCC3)c12 [Compound 29, (S)—N-(6-(1,4-dimethyl-1H-1,2,3-triazol-5-yl)-1-methyl-4-(phenyl(tetrahydro-2H-pyran-4-yl)methyl)-1,4-dihydropyrazolo[3′,4′:4,5]pyrrolo[3,2-b]pyridin-3-yl)acetamide]
2.16 nM	0.34 nM	Cc1nnn(C)c1-c1cnc2c3c(c(CN4CCOCC4)nn3C)n(C(c3ccccc3)C3CCOCC3)c2c1 (stereo not shown) [Compound 34, 4-((6-(1,4-dimethyl-1H-1,2,3-triazol-5-yl)-1-methyl-4-(phenyl(tetrahydro-2H-pyran-4-yl)methyl)-1,4-dihydropyrazolo[3′,4′:4,5]pyrrolo[3,2-b]pyridin-3-yl)methyl)morpholine]
